Results on 29 molecules are retold here after patent US20160002273A1, “THIENO[3,2-D]PYRIMIDINE-6-CARBOXAMIDES AND ANALOGUES AS SIRTUIN MODULATORS” (GLAXOSMITHKLINE LLC, priority 2013, published 2016).

Molecules are shown by their SMILES. Values after ≈ are worked out from the molar mass of the structure shown. Where two headings read alike, the source gives them in different places.

A short description of data set [1]: HPLC based lipophilicity assay (CHI LogD). Particulars: CHI values by reverse phase HPLC transformed to a LogD scale. The class given is physicochemical.
Data set [2] addresses T1, SIRT1 (Homo sapiens, UniProt Q96EB6).
T1 sequence (Q96EB6 1-747): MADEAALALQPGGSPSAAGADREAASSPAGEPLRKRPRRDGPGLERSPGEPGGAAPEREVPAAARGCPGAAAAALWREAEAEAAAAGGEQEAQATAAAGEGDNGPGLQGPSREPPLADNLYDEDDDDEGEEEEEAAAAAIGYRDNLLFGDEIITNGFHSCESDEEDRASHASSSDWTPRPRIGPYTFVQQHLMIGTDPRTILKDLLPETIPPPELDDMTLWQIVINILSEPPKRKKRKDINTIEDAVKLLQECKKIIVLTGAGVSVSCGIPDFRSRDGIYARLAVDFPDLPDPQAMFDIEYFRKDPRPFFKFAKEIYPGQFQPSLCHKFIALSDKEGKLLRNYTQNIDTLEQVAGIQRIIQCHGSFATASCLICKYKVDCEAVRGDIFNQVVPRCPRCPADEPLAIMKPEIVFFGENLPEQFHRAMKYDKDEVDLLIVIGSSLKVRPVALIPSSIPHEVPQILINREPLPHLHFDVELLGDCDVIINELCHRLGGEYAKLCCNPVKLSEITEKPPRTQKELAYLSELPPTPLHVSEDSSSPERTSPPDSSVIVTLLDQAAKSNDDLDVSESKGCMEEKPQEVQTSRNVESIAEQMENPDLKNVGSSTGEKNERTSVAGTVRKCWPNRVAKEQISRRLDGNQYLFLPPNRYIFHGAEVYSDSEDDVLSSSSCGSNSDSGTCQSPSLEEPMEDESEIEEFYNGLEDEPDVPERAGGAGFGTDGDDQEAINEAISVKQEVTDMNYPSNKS
The data set is described as follows: SIRT1 deacetylation of Trp 5-mer peptide, OAADPr mass spec assay.
Description: (§1) All assays were performed at room temperature in reaction buffer (50 mM HEPES, pH 7.5, 150 mM NaCl, 1 mM DTT, 0.05% BSA). […] To prepare the assays for analysis, 20 μL of reaction volume was mixed in 80 μL of 50:50 acetonitrile:methanol mixture. […] Peak data was integrated using RapidFire Integrator software (Agilent, Santa Clara, Calif.).

Data set [3] can be described thus: Kinetic solubility by chemi-luminescent nitrogen detection (CLND). The class given is physicochemical. To be noted: aqueous buffer, kinetic from dmso stock, DMSO stock incubated 1 hr in phosphate buffered saline pH 7.4, filtered.
Data set [4] addresses T2, SIRT2 (Homo sapiens, UniProt Q8IXJ6).
T2 sequence (Q8IXJ6 1-389): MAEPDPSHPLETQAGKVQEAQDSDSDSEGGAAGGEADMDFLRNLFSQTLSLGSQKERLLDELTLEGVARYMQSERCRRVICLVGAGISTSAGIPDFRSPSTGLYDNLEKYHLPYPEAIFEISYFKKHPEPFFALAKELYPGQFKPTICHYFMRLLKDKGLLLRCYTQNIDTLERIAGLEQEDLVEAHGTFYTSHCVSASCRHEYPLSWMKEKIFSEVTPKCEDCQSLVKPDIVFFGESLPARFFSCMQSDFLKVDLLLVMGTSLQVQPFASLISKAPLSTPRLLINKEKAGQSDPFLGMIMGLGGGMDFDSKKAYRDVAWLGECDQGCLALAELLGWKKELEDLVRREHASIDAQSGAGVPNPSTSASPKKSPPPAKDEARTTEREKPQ
Description: SIRT2 deacetylation of Trp 5-mer peptide, OAADPr mass spec assay. The class given is biochemical. More on the design: His-SIRT2(1-389).

Data set [5] concerns the target T3, SIRT3 (Homo sapiens, UniProt Q9NTG7).
T3 sequence (Q9NTG7 102-399): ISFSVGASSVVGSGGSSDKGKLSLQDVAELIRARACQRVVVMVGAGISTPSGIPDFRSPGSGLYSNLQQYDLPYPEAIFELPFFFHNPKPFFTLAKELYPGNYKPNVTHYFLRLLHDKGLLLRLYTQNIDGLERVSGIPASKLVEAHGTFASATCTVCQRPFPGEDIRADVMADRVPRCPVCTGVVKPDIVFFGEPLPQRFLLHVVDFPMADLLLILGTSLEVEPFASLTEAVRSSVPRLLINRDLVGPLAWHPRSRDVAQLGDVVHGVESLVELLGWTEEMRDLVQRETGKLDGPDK
The data set is described as follows: SIRT3 deacetylation of Trp 5-mer peptide, OAADPr mass spec assay. To be noted: Trp SIRT3_IC50, Trp 5-mer peptide; class symbols.
Description: as §1

Setting [6] is: Trp SIRT1_IC50, Trp 5-mer peptide, class symbols.
Setting [7] is: read-out: IC50 (μM) SIRT1, Trp 5-mer peptide and NAD at KM, mean of at least three determinations.
The mark [8] stands for this setting: Trp 5-mer peptide and NAD at KM, mean of at least three determinations, read-out: IC50 (μM) SIRT2.
Setting [9] is: Trp 5-mer peptide, class symbols, read-out: Trp SIRT2_IC50.

A word on the LogD: it is the decadic logarithm of the distribution of all forms, ionised or not, between an organic phase and buffer at a given pH. A higher LogD goes with a more lipophilic compound. By solubility is commonly meant the concentration that dissolves in the medium under given conditions. Low readings indicate a poorly soluble substance, high ones a readily soluble substance. Molecule `CCNC(=O)c1cccc(C(=O)NCCN2CCN(c3ncnc4cc(C(N)=O)sc34)CC2)c1` [Compound 11b] came in with a LogD in data set [1] of 1.45. For the same molecule, the IC50 in data set [2] (setting [6]) is less than 1 µM; in data set [2] (setting [7]), 0.067 µM; in data set [4] (setting [8]) it was 0.01 µM; in data set [4] (setting [9]) it was less than 1 µM. In addition, in data set [3], the solubility at 1 hr was 220 µM (≈ 106 µg/mL).
On to `CCNC(=O)c1ccc(C(=O)NCCC2CCN(c3ncnc4cc(C(N)=O)sc34)CC2)s1` [Compound 11c], for which the LogD in data set [1] is 2.09. This molecule also had a solubility at 1 hr in data set [3] of 9 µM (≈ 4.38 µg/mL).
With `CCNC(=O)c1ccc(C(=O)NCCN2CCN(c3ncnc4cc(C(N)=O)sc34)CC2)s1` [Compound 11d], the LogD in data set [1] stood at 1.32. Also, the IC50 in data set [2] (setting [6]) was less than 1 µM; in data set [2] (setting [7]) it was 0.031 µM; in data set [4] (setting [8]), 0.005 µM; in data set [4] (setting [9]), less than 1 µM. This molecule came in with a solubility at 1 hr in data set [3] of 65 µM (≈ 31.7 µg/mL).
`Cc1nc(N2CCC(CCO)CC2)c2sc(C(N)=O)cc2n1` [Compound 151]: the IC50 in data set [5], in data set [2] (setting [6]) and in data set [4] (setting [9]) was 1 to 10 µM throughout.
Take `Cc1nc(N2CCC(CCN)CC2)c2sc(C(N)=O)cc2n1` [Compound 152, 4-(4-(2-aminoethyl)piperidin-1-yl)-2-methylthieno[3,2-d]pyrimidine-6-carboxamide]: the IC50 in data set [5] is 1 to 10 µM; in data set [2] (setting [6]) it was greater than 10 µM; in data set [4] (setting [9]) it was 1 to 10 µM.
As to `Cc1nc(N2CCN(CCN)CC2)c2sc(C(N)=O)cc2n1` [Compound 153], the values for the IC50 in data set [5], in data set [2] (setting [6]) and in data set [4] (setting [9]) were 1 to 10 µM, greater than 10 µM and 1 to 10 µM, respectively.
As to `Cc1nc(N2CCN(CCNC(=O)C(C)(C)C)CC2)c2sc(C(N)=O)cc2n1` [Compound 156], the IC50 is 1 to 10 µM in data set [5], 1 to 10 µM in data set [2] (setting [6]) and less than 1 µM in data set [4] (setting [9]).
In the case of `Cc1nc(N2CCN(CCNC(=O)C3CCCC3)CC2)c2sc(C(N)=O)cc2n1` [Compound 157], the IC50 in data set [5] is 1 to 10 µM; in data set [2] (setting [6]) it was 1 to 10 µM; in data set [4] (setting [9]), less than 1 µM.
`Cc1nc(N2CCN(CCNS(C)(=O)=O)CC2)c2sc(C(N)=O)cc2n1` [Compound 158]: the results for the IC50 in data set [5], in data set [2] (setting [6]) and in data set [4] (setting [9]) were 1 to 10 µM, greater than 10 µM and 1 to 10 µM, respectively.
Consider `Cc1nc(N2CCC(CCNC(=O)C(C)(C)C)CC2)c2sc(C(N)=O)cc2n1` [Compound 159], for which the IC50 is 1 to 10 µM in data set [5], less than 1 µM in data set [2] (setting [6]) and less than 1 µM in data set [4] (setting [9]).
As to `CC(C)(C)OC(=O)NCCC1CCN(c2nccc3cc(C(N)=O)sc23)CC1` [Compound 168, tert-butyl (2-(1-(2-carbamoylthieno[2,3-c]pyridin-7-yl)piperidin-4-yl)ethyl)carbamate], the IC50 in data set [5], in data set [2] (setting [6]) and in data set [4] (setting [9]) was 1 to 10 µM throughout.
`NC(=O)c1cc2ccnc(N3CCC(CCN4CCCC4)CC3)c2s1` [Compound 169]: the IC50 is less than 1 µM in data set [5], 1 to 10 µM in data set [2] (setting [6]) and 1 to 10 µM in data set [4] (setting [9]).
As to `NC(=O)c1cc2ccnc(N3CCC(CN4CCCC4)CC3)c2s1` [Compound 170], the IC50 was 1 to 10 µM in data set [5], greater than 10 µM in data set [2] (setting [6]) and greater than 10 µM in data set [4] (setting [9]).
Turning to `COCCC1CCN(c2nccc3cc(C(N)=O)sc23)CC1` [Compound 171], the IC50 in data set [5], in data set [2] (setting [6]) and in data set [4] (setting [9]) was greater than 10 µM each time.
Turning to `NC(=O)c1cc2ccnc(N3CCN(CCN4CCCC4)CC3)c2s1` [Compound 173], the IC50 in data set [5] is less than 1 µM; in data set [2] (setting [6]), 1 to 10 µM; in data set [4] (setting [9]), 1 to 10 µM.
Take `NCCC1CCN(c2nccc3cc(C(N)=O)sc23)CC1` [Compound 175, 7-(4-(2-aminoethyl)piperidin-1-yl)thieno[2,3-c]pyridine-2-carboxamide]: the IC50 in data set [5], in data set [2] (setting [6]) and in data set [4] (setting [9]) was greater than 10 µM each time.
For `CC(C)(C)C(=O)NCCN1CCN(c2nccc3cc(C(N)=O)sc23)CC1` [Compound 179], the IC50 in data set [5] was greater than 10 µM; in data set [2] (setting [6]), greater than 10 µM; in data set [4] (setting [9]) it was 1 to 10 µM.
For the molecule `NC(=O)c1cc2ncnc(N3CCC(C(=O)N4CCCC4)CC3)c2s1` [Compound 182], the IC50 in data set [5] was 1 to 10 µM; in data set [2] (setting [6]), greater than 10 µM; in data set [4] (setting [9]), 1 to 10 µM.
Take `CC(C1CCN(c2ncnc3cc(C(N)=O)sc23)CC1)N1CCCC1` (centres unmarked) [Compound 183]: the IC50 in data set [5], in data set [2] (setting [6]) and in data set [4] (setting [9]) was less than 1 µM each time.
As to `CC(C)(C)OC(=O)N1CCC2(CCN(c3ncnc4cc(C(N)=O)sc34)CC2)C1` [Compound 184], the IC50 in data set [5] was 1 to 10 µM; in data set [2] (setting [6]), 1 to 10 µM; in data set [4] (setting [9]), less than 1 µM.
For `NC(=O)c1cc2ncnc(N3CCC4(CCNC4)CC3)c2s1` [Compound 185], the IC50 in data set [5] is less than 1 µM; in data set [2] (setting [6]), 1 to 10 µM; in data set [4] (setting [9]), 1 to 10 µM.
As for `CC(C)(C)C(=O)N1CCC2(CCN(c3ncnc4cc(C(N)=O)sc34)CC2)C1` [Compound 186], the IC50 in data set [5], in data set [2] (setting [6]) and in data set [4] (setting [9]) was less than 1 µM throughout.
`NCCC1CCN(c2ncnc3ccsc23)CC1` [Compound 188, 2-(1-(thieno[3,2-d]pyrimidin-4-yl)piperidin-4-yl)ethanamine 2,2,2-trifluoroacetate]: the IC50 is greater than 10 µM in data set [5], greater than 10 µM in data set [2] (setting [6]) and 1 to 10 µM in data set [4] (setting [9]).
Regarding `CC(C)(C)OC(=O)NCCC1CCN(c2ncnc3cc(C(=O)O)sc23)CC1` [Compound 189, 4-(4-(2-((tert-butoxycarbonyl)amino)ethyl)piperidin-1-yl)thieno[3,2-d]pyrimidine-6-carboxylic acid], the IC50 in data set [5], in data set [2] (setting [6]) and in data set [4] (setting [9]) was greater than 10 µM throughout.
Take `CCNC(=O)c1cccc(C(=O)NCCN2CCN(c3ncnc4ccsc34)CC2)c1` [Compound 190]: the IC50 in data set [5], in data set [2] (setting [6]) and in data set [4] (setting [9]) was greater than 10 µM in each case.
Turning to `NCCNC(=O)c1cccc(C(=O)NCCN2CCN(c3ncnc4ccsc34)CC2)c1` [Compound 191], the IC50 in data set [5], in data set [2] (setting [6]) and in data set [4] (setting [9]) was greater than 10 µM throughout.
With `O=C(O)c1cc2ncnc(N3CCC(CN4CCCC4)CC3)c2s1` [Compound 192], the IC50 in data set [5], in data set [2] (setting [6]) and in data set [4] (setting [9]) was greater than 10 µM throughout.
In the case of `CCNC(=O)c1ccc(C(=O)NCCC2CCN(c3ncnc4ccsc34)CC2)s1` [Compound 193], the IC50 in data set [5], in data set [2] (setting [6]) and in data set [4] (setting [9]) was greater than 10 µM each time.
For the molecule `CCNC(=O)c1ccc(C(=O)NCCC2CCN(c3ncnc4cc(C(=O)NCC)sc34)CC2)s1` [Compound 194], the IC50 in data set [5], in data set [2] (setting [6]) and in data set [4] (setting [9]) was 1 to 10 µM each time.
